Results: PMC11784145, “Efficacy and in vitro pharmacological assessment of novel N-hydroxypyridinediones as hepatitis B virus ribonuclease H inhibitors” (Antimicrobial Agents and Chemotherapy, 2024)
Several values for one entry are separate records, joined by “and”; a condition that tells them apart may be missing. Equal entries are not always repeated. Where two headings read alike, the source gives them in different places.

Columns and labels:
[1] = Parallel artificial membrane permeability assay (PAMPA); format: in vitro ADME
Experimental: Compound Papp values were determined by normalizing the experimental compound absorbance to the compounds’ absorbances at equilibrium, membrane porosity, buffer volume, and time (s). Two or more replicate assays were obtained on separate days for each pH.

HepDES19 cells = conditions: read-out: HepDES19 CC50; 72 h, MTS; highest concentration tested 100 µM; mean ± SD
Experimental: HepDES19 cells were plated on 96-well tissue culture-treated plates (Greiner) at 1.0 × 10^4 cells per well and incubated for 48 h. Cells were treated with titrated concentrations of compound or 1% DMSO vehicle for 72 h, and cellular viability was measured by 3-(4,5-dimethylthiazol-2-yl)−5-(3-carboxymethoxyphenyl)−2-(4-sulfophenyl)−2H-tetrazolium (MTS) assays, as described previously ([20]). […] Three or more replicate assays were done on different days.

Microsome stability = format: in vitro ADME, human; conditions: human liver microsomes; for Clearance (intrinsic clearance, Clint) / Half-life: 1 µM compound, 30 min, NADPH
CYP2D6 = target: T1, CYP2D6 (Homo sapiens, UniProt P10635); assay: Cytochrome P450 inhibition, Vivid 2D6 EOMCC Blue kit; format: in vitro ADME; conditions: for IC50: dose-response 50 µM to 3 nM, mean ± SD
T1 construct: purchased Thermo Fisher Vivid 2D6 EOMCC Blue
T1 sequence (P10635 whole entry): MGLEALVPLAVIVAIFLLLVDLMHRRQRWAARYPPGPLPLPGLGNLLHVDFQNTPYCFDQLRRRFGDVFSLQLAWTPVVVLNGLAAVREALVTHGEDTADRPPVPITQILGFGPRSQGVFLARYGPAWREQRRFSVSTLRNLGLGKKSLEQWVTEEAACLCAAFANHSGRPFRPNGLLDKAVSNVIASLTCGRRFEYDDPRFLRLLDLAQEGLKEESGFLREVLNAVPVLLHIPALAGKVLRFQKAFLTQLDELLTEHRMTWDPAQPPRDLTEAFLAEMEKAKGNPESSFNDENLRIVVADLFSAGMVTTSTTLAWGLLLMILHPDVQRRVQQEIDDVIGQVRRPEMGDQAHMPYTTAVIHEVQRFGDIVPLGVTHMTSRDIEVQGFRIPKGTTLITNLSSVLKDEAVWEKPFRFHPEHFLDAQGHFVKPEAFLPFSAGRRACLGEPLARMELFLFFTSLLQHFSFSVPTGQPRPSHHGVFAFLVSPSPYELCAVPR
Experimental: Compound inhibition of Cytochrome P (CYP) 3A4, 2C9, and 2D6 was determined using Vivid CYP450 screening kits (Thermo Fisher) according to the manufacturer’s instructions, as described previously ([27]). The kits employed were: Vivid 3A4 DBOMF Green, 2C9 BOMF Green, and 2D6 EOMCC Blue. Reactions were initiated by addition of the fluorophore-conjugated substrates with Vivid NADP^+ and were conducted at 37°C using either a Biotek Synergy HTX multi-mode plate reader with 485/20 nm excitation and 520/20 nm emission filters (green-fluorescent substrate), or a Tecan Spark plate reader with monochromator settings at 415/20 nm excitation and 460/20 nm emission (blue-fluorescent substrate) defined by the Center Wavelength/band-pass values. Substrate cleavage was detected every 60 s.
Compounds were initially screened against each enzyme at 10 µM and maximum rates of fluorescence in RFU were calculated using the Biotek Gen5 v3.11 software. Percent inhibition of experimental compound reactions was normalized to the rate to DMSO vehicle reactions. Positive controls used were: CYP3A4—ketoconazole (Sigma Aldrich), CYP2C9—sulfaphenazole (Cayman Chemical), and CYP2D6—quinidine (Fisher Scientific). Dose-response curves were generated for compounds that inhibited an enzyme by ≥50% using titrated concentrations of compound (50 µM to 3 nM) or 1% DMSO. IC50 values were determined using the four-parameter log[inhibitor] versus response algorithm in GraphPad Prism. Qualitative screens and dose-response curves were each performed in triplicate on different days.

[2] = tested on: HBV replication (HBV plus-polarity DNA strand); assay: HBV replication inhibition, strand preferential qPCR in hepDES19 cells; format: cell-based, hepatitis B virus; conditions: for EC50: 72 h exposure
Experimental: HBV replication inhibition was measured in hepDES19 cells following 72 h compound exposure without compound replenishment. EC50 values were determined by HBV plus-polarity strand suppression using a strand preferential qPCR assay, as described previously ([28]). Three or more replicate values were obtained on different days.

[3] = target: T2, human ribonuclease H1 (huRNase H1) (Homo sapiens, UniProt O60930); assay: Human RNase H1 inhibition, fluorescent biochemical assay
T2 construct: made in house; host or cells: Escherichia coli
T2 sequence (O60930 1-286): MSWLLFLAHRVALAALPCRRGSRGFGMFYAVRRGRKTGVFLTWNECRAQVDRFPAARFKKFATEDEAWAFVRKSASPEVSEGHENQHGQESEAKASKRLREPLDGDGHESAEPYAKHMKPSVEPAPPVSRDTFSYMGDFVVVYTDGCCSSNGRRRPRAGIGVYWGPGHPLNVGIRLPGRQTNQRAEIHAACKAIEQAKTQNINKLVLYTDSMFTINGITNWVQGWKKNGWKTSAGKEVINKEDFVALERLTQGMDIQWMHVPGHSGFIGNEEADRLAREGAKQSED

[4] = Solubility limit, turbidimetric assay; format: physicochemical; conditions: upper limit 200 µM
Experimental: Solubility limits were determined by a turbidimetric assay, as described ([27]), with the solubility limit being defined as the compound concentration where light scattering began to rise. Two or more replicate assays were performed for each compound at each pH on different days.

[5] = HBV plus-polarity strand suppression, highest concentration tested 100 µM, mean ± SD, read-out: HepDES19 EC50
[6] = read-out: EC50 against HBV replication
[7] = pH 5 (fed simulated intestinal fluid)
[8] = pH 6.5 (fasted simulated intestinal fluid)

Structure (SMILES) | Avg Papp (PAMPA) ([1]; FeSSIF pH 5) [×10⁻⁶ cm/s] | Interpretation (PAMPA Papp) ([1]; FeSSIF pH 5) | Papp 1 (PAMPA) ([1]; FeSSIF pH 5, replicate 1) [×10⁻⁶ cm/s] | Papp 2 (PAMPA) ([1]; FeSSIF pH 5, replicate 2) [×10⁻⁶ cm/s] | Avg Papp (PAMPA) ([1]; pH 7.4) [×10⁻⁶ cm/s] | PAMPA apparent permeability (Papp) category ([1]; pH 7.4) | Papp 1 (PAMPA) ([1]; pH 7.4, replicate 1) [×10⁻⁶ cm/s] | Papp 2 (PAMPA) ([1]; pH 7.4, replicate 2) [×10⁻⁶ cm/s] | CC50 (HepDES19 cells) [µM] | Intrinsic clearance (Clint) rate category (Microsome stability) | Clearance (intrinsic clearance, Clint) (Microsome stability) [µL/min/mg] | Half-life (Microsome stability) [min] | IC50 (CYP2D6) [µM] | HepDES19 SI (CC50/EC50) [2] | EC50 [2, 5] [µM] | EC50 [2, 6] [µM] | Selectivity of HBV replication inhibition over huRNase H1 (huRNase H1 IC50 versus HBV EC50) [3] | Average Sol (solubility limit) [4, 7] [µM] | Sol 1 (solubility limit) ([4]; pH 5, replicate 1) [µM] | Sol 2 (solubility limit) ([4]; pH 5, replicate 2) [µM] | also measured
CC(=NOCc1cccc(F)c1)c1c(C)cc(=O)n(O)c1O [Compound 1618] | 16.4 | H (H: Papp > 1*10-6) | 15.4 | 17.4 | 0.489 | low (low (<1 × 10^−6 cm/s)) | 0.395 | 0.582 | 73.9 ± 28.6 | low (low Clint (µL/min/mg protein) rates (<8.6)) | 5.71 | >30 | 10.2 ± 4.1 | 1,071 | 0.061 ± 0.01 | < 0.4 | at least 10 fold | > 200 | > 200 | > 200 | Selectivity index for CYP (CYP2D6) inhibition versus HBV EC50 (CYP2D6): > 150 and 166; Average Sol (solubility limit) [4, 8]: > 200 µM; Sol 1 (solubility limit) ([4]; pH 6.5, replicate 1): > 200 µM; Sol 2 (solubility limit) ([4]; pH 6.5, replicate 2): > 200 µM; Sol 3 (solubility limit) ([4]; pH 6.5, replicate 3): > 200 µM; Average Sol (solubility limit) ([4]; pH 7.4 (DMEM-F12 with 10% FBS)): > 200 µM; Sol 1 (solubility limit) ([4]; pH 7.4, replicate 1): > 200 µM; Sol 2 (solubility limit) ([4]; pH 7.4, replicate 2): > 200 µM
CC(=NOCc1ccc(F)c(F)c1)c1c(C)cc(=O)n(O)c1O [Compound 1617] | 15.1 | H (H: Papp > 1*10-6) | 4.04 | 26.1 | 0.95 | low (low (<1 × 10^−6 cm/s)) | 1.46 | 0.478 | 72.9 ± 37.1 | medium (medium Clint rates (≥ 8.6 and ≤47)) | 45.7 | 23.0 | 4.46 | 157 | 0.35 ± 0.193 | < 0.4 | at least 10 fold | > 200 | > 200 | > 200 | Papp 3 (PAMPA) ([1]; pH 7.4, replicate 3): 0.911 ×10⁻⁶ cm/s; Average Sol (solubility limit) [4, 8]: > 200 µM; Sol 1 (solubility limit) ([4]; pH 6.5, replicate 1): > 200 µM; Sol 2 (solubility limit) ([4]; pH 6.5, replicate 2): > 200 µM; Average Sol (solubility limit) ([4]; pH 7.4 (DMEM-F12 with 10% FBS)): > 200 µM; Sol 1 (solubility limit) ([4]; pH 7.4, replicate 1): > 200 µM; Sol 2 (solubility limit) ([4]; pH 7.4, replicate 2): > 200 µM
